# In paper PMC3527451, “A Pilot Randomized, Placebo Controlled, Double Blind Phase I Trial of the Novel SIRT1 Activator SRT2104 in Elderly Volunteers” (PLoS ONE, 2012):
# “Also recorded” adds a separate entry of the source. Where two headings read alike, the source gives them in different places.
# Key:
# [1] = test system: elderly male and female volunteers; experiment: Modified oral glucose tolerance test (mOGTT); format: in vivo, human
# Protocol: The oral glucose tolerance test (OGTT) allows identification and monitoring of individuals with impaired glucose tolerance and to evaluate the pharmacological effects of glucose lowering agents, [21]. A mOGTT was performed at baseline and on day 29 to assess the pharmacodynamic effects of SRT2104 (or placebo) on glucose, insulin and C-peptide levels. On both occasion, after an overnight fast, subjects were asked to drink a standard glucose beverage containing 75 g of glucose. Blood sample were drawn 10 min before and just prior to the subject consuming the beverage. Additional blood samples were drawn at 10, 20, 30, 60, 90, 120 and 180 minutes after the subject had consumed the glucose beverage. Plasma level of glucose, insulin and C-peptide were measured at each time point. The maximum glucose level (Gmax) was determined, and the area under the plasma glucose concentration–time curve (AUCgluc) was calculated using the trapezoidal rule. AUCgluc60 was defined as the area under the curve from 0 to 60 min after glucose ingestion, the period during which plasma glucose concentration increases. The effects of SRT2104 (or placebo) on glucose, insulin and C-peptide levels and relative AUCs were calculated in each subject as the differences between values at baseline (screening) and after 28 daily administrations of the test material.
# [2] = test system: elderly male and female volunteers; experiment: Maximal aerobic capacity test (incremental cycle ergometer); format: in vivo, human
# Protocol: A stepwise incremental exercise test was performed on a cycle ergometer (Monarch 874E, Monark Exercise AB, Vansbro, Sweden). All participants were familiarized to the test procedure on a separate occasion prior to testing. Participants were seated in a standardized position. The test started with unloaded cycling, subjects were asked to maintain a cadence of 50 revolutions per minute (rpm), if the subject could not achieve 50 rpm they were encouraged to cycle as fast as the could (but not less than 40 rpm). Every two minutes the external load on the cycle ergometer was increased by 0.5 kg, this equated to a 25-Watt increase in workload at 50 rpm. Cardiac monitoring of heart rate, respiratory rate/minute ventilation and pulse oximeter for oxygen saturation were continuously recorded during the test.
# Analysis of Maximal Aerobic Capacity parameters was performed using an ANOVA model with treatment group as a factor. Workload was progressed in 2-minute staged increments from an initial 3 minutes unloaded cycling, to exhaust subjects over a 6- to 10-min period. The test was terminated when the participant reached volitional exhaustion or their cadence dropped by 10 rpm. At the end of each increment, work-rate watts, rating of perceived exertion (Borg RPE scale), heart rate (Polar Vantage chest heart rate monitor, Polar Electro, Finland) and 3-lead ECG were recorded.
# CYP1A = details: human liver microsomes; cited from earlier work
# CYP2C9 = details: human liver microsomes; cited from earlier work
# CYP2C19 = details: human liver microsomes; cited from earlier work
# CYP2D6 = details: human liver microsomes; cited from earlier work
# [3] = cited from earlier work
# healthy male volunteers = details: young healthy volunteers, up to 7 days dosing of 0.03–3.0 g/day; cited from earlier work
# 39 common receptors = test system: 39 common receptors; design: method as in SRT2104 Investigator's Brochure; details: in vitro; ref SRT2104 Investigator's Brochure; cited from earlier work
# DIO mice and ob/ob mice = details: cited from earlier work
# rat = test system: rat; design: method as in SRT2104 Investigator's Brochure; details: ref SRT2104 Investigator's Brochure, cited from earlier work; for NOAEL: 28 days
# dog = test system: dog; design: method as in SRT2104 Investigator's Brochure; details: ref SRT2104 Investigator's Brochure, cited from earlier work
# healthy male subjects = test system: healthy male subjects; design: method as in SRT-2104-002; details: 250 mg oral suspension and intravenous microdose of 100µg 14C-SRT2104, eight healthy male subjects; ref SRT-2104-002; cited from earlier work
# [4] = once daily oral administration, ref SRT2104 Investigator's Brochure
smiles,measurement,setting,value
Cc1nc(-c2cccnc2)sc1C(=O)Nc1ccccc1-c1cn2c(CN3CCOCC3)csc2n1 [SRT2104],OGTT responses,[1]; 0.5 or 2.0 g for 28 days,No significant changes
same,rise of insulin and C-peptide and peak insulin concentration in OGTT,"[1]; 2.0 g/day, day 29 relative to baseline",trends to reduced rates in the rise of both insulin and C-peptide and a lower peak insulin concentration
same,insulin and C-peptide levels and relative AUCs in OGTT,[1]; baseline vs day 29,no statistically significant changes
same,"RPE, range of change from baseline","[2]; 0.5g/day, day 27",-3-6
same,"TTC, range of change from baseline","[2]; 0.5g/day, day 27",-106 to 67 s
same,"TTC, mean change from baseline (SD)","[2]; 0.5g/day, day 27, p 0.004",-31 (50) sec
same,"RPE, mean change from baseline (SD)","[2]; 0.5g/day, day 27, p 0.962",0 (3)
same,decrease in exercise capacity (time to cessation for the staged bicycle assessment),"[2]; 0.5 g/day, day 27, p = 0.004",4%
same,"RPE, range of change from baseline","[2]; 2.0g/day, day 27",-3-1
same,"TTC, range of change from baseline","[2]; 2.0g/day, day 27",-29 to 45 s
same,change in exercise capacity,"[2]; 2.0g/day, day 27",no evidence for any changes
same,"TTC, mean change from baseline (SD)","[2]; 2.0g/day, day 27, p 0.292",9 (27) sec
same,"RPE, mean change from baseline (SD)","[2]; 2.0g/day, day 27, p 0.638",-1 (2)
same,inhibition of CYP1A,CYP1A,not an inhibitor; also recorded: does not inhibit
same,inhibition of CYP2C9,CYP2C9,not an inhibitor; also recorded: does not inhibit
same,inhibition of CYP2C19,CYP2C19,not an inhibitor; also recorded: does not inhibit
same,inhibition of CYP2D6,CYP2D6,not an inhibitor; also recorded: does not inhibit
same,dose proportionality of AUC(0-t) and Cmax,[3]; dose range 0.03 to 1.0 g/day,approximate dose proportionality
same,dose proportionality of AUC(0-t) and Cmax,[3]; doses greater than 1.0 g/day up to 3.0 g/day,less than dose proportional increase between 1.0–3.0 g/day
same,effect of dose on elimination half-life (t1/2),[3]; doses up to 3.0 g/day,not affected by dose; also recorded: similar
same,terminal elimination half-life (t½),"[3]; healthy male volunteers, 0.03 – 3.0 g/day, liquid suspension, ref SRT-2104-001 (19)",8 to 24 h
same,tolerability,healthy male volunteers,well tolerated and safe
same,inhibitory activity against 39 common receptors,39 common receptors,no significant inhibitory activity
same,"cholesterol, LDL and triglycerides in preclinical models of dyslipidemia, diabetes and obesity",DIO mice and ob/ob mice; e.g. DIO and Lep ob/ob obese mice,"lower cholesterol, LDL and triglycerides"
same,glucose and insulin levels,"DIO mice and ob/ob mice; once daily oral 0.1 g/kg for 7 days or more, ref SRT2104 Investigator's Brochure",reduces glucose and insulin levels
same,body weight,DIO mice and ob/ob mice; [4],No effect on body weight
same,fasting blood glucose and fed insulin,DIO mice and ob/ob mice; [4],lowered
same,response to a glucose tolerance test,DIO mice and ob/ob mice; [4],enhanced the response to a glucose tolerance test
same,adverse reactions in mouse models of diabetes,"DIO mice and ob/ob mice; up to 0.3 g/kg orally once daily for 28 days, ref SRT2104 Investigator's Brochure",No adverse reactions
same,"vacuolation of pancreatic acinar cells, animals affected","rat; female rat, Day 29, not seen after 4 weeks recovery",3/10
same,NOAEL,rat; female rats,1000 mg/kg
same,NOAEL,"rat; male rats, highest dose tested",2000 mg/kg
same,tolerability,"rat; rat, up to 2.0 g/kg for 28 days",well tolerated at all doses
same,tolerability,"dog; dog, up to 2.0 g/kg for 28 days",well tolerated at all doses
same,increase in indirect bilirubin,"dog; female dogs, 2.0 g/kg/day group",< 2 X
same,NOAEL,"dog; male and female dogs, 28 days",1000 mg/kg
same,tolerability,healthy male subjects,well-tolerated
